Among the data in patent US9109004B2, “Progesterone receptor antagonists” (Bayer Intellectual Property GmbH, priority 2010, dated 2015) are IC50 values, retold here.

Broadly, the IC50 is the concentration that inhibits the measured activity by half. Low readings indicate greater potency, high ones weaker potency.

This assay has as its target T1, human progesterone receptor A (Homo sapiens, UniProt P06401).
T1 construct: expressed in transfected cells; host or cells: SK-N-MC human neuroblastoma cells, stably transfected
T1 sequence (P06401 1-769 isoform P06401-2): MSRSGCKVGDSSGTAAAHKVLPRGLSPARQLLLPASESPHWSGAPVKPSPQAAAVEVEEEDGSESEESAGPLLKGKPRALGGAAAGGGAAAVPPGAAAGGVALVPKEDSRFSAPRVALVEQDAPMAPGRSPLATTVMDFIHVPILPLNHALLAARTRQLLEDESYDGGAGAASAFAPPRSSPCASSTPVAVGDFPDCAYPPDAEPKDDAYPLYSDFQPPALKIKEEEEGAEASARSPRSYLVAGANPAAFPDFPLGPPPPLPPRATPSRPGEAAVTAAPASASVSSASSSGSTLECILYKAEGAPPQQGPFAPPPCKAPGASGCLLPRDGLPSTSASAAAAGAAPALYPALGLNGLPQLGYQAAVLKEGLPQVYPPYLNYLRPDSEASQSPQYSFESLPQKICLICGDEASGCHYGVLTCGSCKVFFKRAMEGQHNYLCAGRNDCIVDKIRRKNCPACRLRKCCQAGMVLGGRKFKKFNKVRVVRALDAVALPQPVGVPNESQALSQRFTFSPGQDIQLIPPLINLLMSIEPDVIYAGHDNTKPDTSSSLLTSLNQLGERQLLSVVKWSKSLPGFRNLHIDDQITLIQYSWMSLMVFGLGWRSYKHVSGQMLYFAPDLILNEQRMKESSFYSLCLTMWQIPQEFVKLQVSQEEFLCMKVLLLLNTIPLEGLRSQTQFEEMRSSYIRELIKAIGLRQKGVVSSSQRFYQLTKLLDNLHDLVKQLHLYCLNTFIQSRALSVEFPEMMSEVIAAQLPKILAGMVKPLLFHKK
Nature of the assay: Progesterone-receptor-antagonistic action in stably transfected SK-N-MC cells, MTV-LUC reporter (PR-A). Format: cell-based. The settings on record: antagonistic potency vs 0.1 nmol/l promegestone, 24 hours, luciferase. Here is the method: Progesterone-Receptor-Antagonistic Action in Stable Transfectants of Human Neuroblastoma Cells (SK-N-MC Cells) with the Human Progesterone A or Progesterone B Receptor and an MTV-LUC Reporter Construct
SK-N-MC cells (human neuroblastoma cells) that have been stably transfected with plasmids that express the human progesterone receptor B (pRChPR-B-neo) or the human progesterone receptor A (pRChPR-A-neo) and a reporter construct (pMMTV-LUC), were incubated for 24 hours either in the absence (negative control) or in the presence of increasing amounts of the particular test compound (0.01 nmol/l, 0.1 nmol/l, 1 nmol/l, 10 nmol/l, 100 nmol/l and 1 μmol/l), to determine the agonistic efficacy. As positive control of reporter gene induction, the cells were treated with the synthetic gestagen promegestone (0.01 nmol/l, 0.1 nmol/l, 1 nmol/l, 10 nmol/l, 100 nmol/l and 1 μmol/l). For determination of the antagonistic activity, the cells were treated with 0.1 nmol/l promegestone and additionally with increasing amounts of the particular test compound (0.01 nmol/l, 0.1 nmol/l, 1 nmol/l, 10 nmol/l, 100 nmol/l and 1 μmol/l). The activity of the reporter gene LUC (LUC=luciferase) was determined in the cell lysates and was measured as RLU (relative light units). All measured values are given as % efficacy and as EC50 or IC50 concentrations.
As for `CC(=O)Nc1ccc(NC(=O)c2ccc([C@H]3C[C@@]4(C)[C@@H](CC[C@@]4(O)C(F)(F)C(F)(F)F)[C@@H]4CCC5=CC(=O)CCC5=C43)cc2)cc1` [Example 52, N-(4-acetamidophenyl)-4-[(11β,17β)-17-hydroxy-3-oxo-17-(pentafluoroethyl)estra-4,9-dien-11-yl]benzamide], the IC50 was found to be 0.71 nM.
Under `COc1cccc(CNC(=O)c2ccc([C@H]3C[C@@]4(C)[C@@H](CC[C@@]4(O)C(F)(F)C(F)(F)F)[C@@H]4CCC5=CC(=O)CCC5=C43)cc2)c1` [Example 53, 4-[(11β,17β)-17-hydroxy-3-oxo-17-(pentafluoroethyl)estra-4,9-dien-11-yl]-N-(3-methoxybenzyl)benzamide] stands 29 nM; under `C[C@]12C[C@H](c3ccc(C(=O)NCCN4CCCC4)cc3)C3=C4CCC(=O)C=C4CC[C@H]3[C@@H]1CC[C@@]2(O)C(F)(F)C(F)(F)F` [Example 54, 4-[(11β,17β)-17-hydroxy-3-oxo-17-(pentafluoroethyl)estra-4,9-dien-11-yl]-N-[2-(pyrrolidin-1-yl)ethyl]benzamide], 21 nM; under `C[C@]12C[C@H](c3ccc(C(=O)NCCc4cccnc4)cc3)C3=C4CCC(=O)C=C4CC[C@H]3[C@@H]1CC[C@@]2(O)C(F)(F)C(F)(F)F` [Example 55, 4-[(11β,17β)-17-hydroxy-3-oxo-17-(pentafluoroethyl)estra-4,9-dien-11-yl]-N-[2-(pyridin-3-yl)ethyl]benzamide], 2.5 nM.
For `C[C@]12C[C@H](c3ccc(C(=O)NCc4cccc(Cl)c4)cc3)C3=C4CCC(=O)C=C4CC[C@H]3[C@@H]1CC[C@@]2(O)C(F)(F)C(F)(F)F` [Example 56, N-(3-chlorobenzyl)-4-[(11β,17β)-17-hydroxy-3-oxo-17-(pentafluoroethyl)estra-4,9-dien-11-yl]benzamide], the IC50 was determined as 2.3 nM.
With `COC(=O)c1cccc(NC(=O)c2ccc([C@H]3C[C@@]4(C)[C@@H](CC[C@@]4(O)C(F)(F)C(F)(F)F)[C@@H]4CCC5=CC(=O)CCC5=C43)cc2)c1` [Example 57, methyl-3-({4-[(11β,17β)-17-hydroxy-3-oxo-17-(pentafluoroethyl)estra-4,9-dien-11-yl]benzoyl}amino)benzoate], 0.8 nM corresponded to half-maximal inhibition (IC50). This IC50 lies about 2.9-fold lower than the previous one.
In turn, `CN(CCc1ccncc1)C(=O)c1ccc([C@H]2C[C@@]3(C)[C@@H](CC[C@@]3(O)C(F)(F)C(F)(F)F)[C@@H]3CCC4=CC(=O)CCC4=C32)cc1` [Example 58, 4-[(11β,17β)-17-hydroxy-3-oxo-17-(pentafluoroethyl)estra-4,9-dien-11-yl]-N-methyl-N-[2-(pyridin-4-yl)ethyl]benzamide] displayed an IC50 of 5.7 nM.
In turn, `C[C@]12C[C@H](c3ccc(C(=O)NCC4CC4)cc3)C3=C4CCC(=O)C=C4CC[C@H]3[C@@H]1CC[C@@]2(O)C(F)(F)C(F)(F)F` [Example 59, N-(cyclopropylmethyl)-4-[(11β,17β)-17-hydroxy-3-oxo-17-(pentafluoroethyl)estra-4,9-dien-11-yl]benzamide] displayed a concentration for half-maximal inhibition (IC50) of 6.9 nM.
As for `C[C@]12C[C@H](c3ccc(C(=O)Nc4ccc(C(=O)Nc5ccccc5)cc4)cc3)C3=C4CCC(=O)C=C4CC[C@H]3[C@@H]1CC[C@@]2(O)C(F)(F)C(F)(F)F` [Example 60, 4-[(11β,17β)-17-hydroxy-3-oxo-17-(pentafluoroethyl)estra-4,9-dien-11-yl]-N-[4-(phenylcarbamoyl)phenyl]benzamide], half-maximal inhibition (IC50) was put at 0.39 nM.
Next, `C[C@]12C[C@H](c3ccc(C(=O)NCCc4ccccn4)cc3)C3=C4CCC(=O)C=C4CC[C@H]3[C@@H]1CC[C@@]2(O)C(F)(F)C(F)(F)F` [Example 61, 4-[(11β,17β)-17-hydroxy-3-oxo-17-(pentafluoroethyl)estra-4,9-dien-11-yl]-N-[2-(pyridin-2-yl)ethyl]benzamide]: 1.6 nM; `CN1CCN(CCNC(=O)c2ccc([C@H]3C[C@@]4(C)[C@@H](CC[C@@]4(O)C(F)(F)C(F)(F)F)[C@@H]4CCC5=CC(=O)CCC5=C43)cc2)CC1` [Example 62, 4-[(11β,17β)-17-hydroxy-3-oxo-17-(pentafluoroethyl)estra-4,9-dien-11-yl]-N-[2-(4-methylpiperazin-1-yl)ethyl]benzamide]: 94 nM; `C[C@]12C[C@H](c3ccc(C(=O)N4CCC(c5ccccc5)CC4)cc3)C3=C4CCC(=O)C=C4CC[C@H]3[C@@H]1CC[C@@]2(O)C(F)(F)C(F)(F)F` [Example 63, (11β,17β)-17-hydroxy-17-(pentafluoroethyl)-11-{4-[(4-phenylpiperidin-1-yl)carbonyl]phenyl}estra-4,9-dien-3-one]: 4.1 nM.
With `C[C@]12C[C@H](c3ccc(C(=O)NCCc4ccncc4)cc3)C3=C4CCC(=O)C=C4CC[C@H]3[C@@H]1CC[C@@]2(O)C(F)(F)C(F)(F)F` [Example 64, 4-[(11β,17β)-17-hydroxy-3-oxo-17-(pentafluoroethyl)estra-4,9-dien-11-yl]-N-[2-(pyridin-4-yl)ethyl]benzamide], half-maximal inhibition (IC50) was put at 1.1 nM.
Take `C[C@]12C[C@H](c3ccc(C(=O)N4CCN(C(=O)c5ccccc5)CC4)cc3)C3=C4CCC(=O)C=C4CC[C@H]3[C@@H]1CC[C@@]2(O)C(F)(F)C(F)(F)F` [Example 65, (11β,17β)-11-{4-[(4-benzoylpiperazin-1-yl)carbonyl]phenyl}-17-hydroxy-17-(pentafluoroethyl)estra-4,9-dien-3-one]: the IC50 stood at 2.7 nM.
Next, `CN(C)C(=O)N1CCN(C(=O)c2ccc([C@H]3C[C@@]4(C)[C@@H](CC[C@@]4(O)C(F)(F)C(F)(F)F)[C@@H]4CCC5=CC(=O)CCC5=C43)cc2)CC1` [Example 66, 4-{4-[(11β,17β)-17-hydroxy-3-oxo-17-(pentafluoroethyl)estra-4,9-dien-11-yl]benzoyl}-N,N-dimethylpiperazine-1-carboxamide]: 35 nM.
As to `C[C@]12C[C@H](c3ccc(C(=O)N4CCN(S(C)(=O)=O)CC4)cc3)C3=C4CCC(=O)C=C4CC[C@H]3[C@@H]1CC[C@@]2(O)C(F)(F)C(F)(F)F` [Example 67, (11β,17β)-17-hydroxy-11-(4-{[4-(methylsulphonyl)piperazin-1-yl]carbonyl}phenyl)-17-(pentafluoroethyl)estra-4,9-dien-3-one], 6.3 nM corresponded to half-maximal inhibition (IC50).
Consider `C[C@]12C[C@H](c3ccc(C(=O)N4CCN(Cc5ccccn5)CC4)cc3)C3=C4CCC(=O)C=C4CC[C@H]3[C@@H]1CC[C@@]2(O)C(F)(F)C(F)(F)F` [Example 68, (11β,17β)-17-hydroxy-17-(pentafluoroethyl)-11-(4-{[4-(pyridin-2-ylmethyl)piperazin-1-yl]carbonyl}phenyl)estra-4,9-dien-3-one], for which the IC50 was found to be 16 nM.
In turn, `C[C@]12C[C@H](c3ccc(C(=O)N4CCN(Cc5cccnc5)CC4)cc3)C3=C4CCC(=O)C=C4CC[C@H]3[C@@H]1CC[C@@]2(O)C(F)(F)C(F)(F)F` [Example 69, (11β,17β)-17-hydroxy-17-(pentafluoroethyl)-11-(4-{[4-(pyridin-3-ylmethyl)piperazin-1-yl]carbonyl}phenyl)estra-4,9-dien-3-one] displayed an IC50 of 7.3 nM.
Under `COC(=O)N1CCN(C(=O)c2ccc([C@H]3C[C@@]4(C)[C@@H](CC[C@@]4(O)C(F)(F)C(F)(F)F)[C@@H]4CCC5=CC(=O)CCC5=C43)cc2)CC1` [Example 70, methyl-4-{4-[(11β,17β)-17-hydroxy-3-oxo-17-(pentafluoroethyl)estra-4,9-dien-11-yl]benzoyl}piperazine-1-carboxylate] stands 1.7 nM.
Next, `CNC(=O)CN1CCN(C(=O)c2ccc([C@H]3C[C@@]4(C)[C@@H](CC[C@@]4(O)C(F)(F)C(F)(F)F)[C@@H]4CCC5=CC(=O)CCC5=C43)cc2)CC1` [Example 71, 2-(4-{4-[(11β,17β)-17-hydroxy-3-oxo-17-(pentafluoroethyl)estra-4,9-dien-11-yl]benzoyl}piperazin-1-yl)-N-methylacetamide]: 38 nM.
